Broadly, the Kd is a measure of binding affinity in units of concentration. A lower Kd goes with higher affinity.

Read-outs that look alike come from different tables or passages of the source.

The target in one test is T1, PIK3Cd_h (Homo sapiens, UniProt O00329).
T1 construct: purchased Eurofins DiscoveRx Corporation
T1 sequence (O00329 1-1044): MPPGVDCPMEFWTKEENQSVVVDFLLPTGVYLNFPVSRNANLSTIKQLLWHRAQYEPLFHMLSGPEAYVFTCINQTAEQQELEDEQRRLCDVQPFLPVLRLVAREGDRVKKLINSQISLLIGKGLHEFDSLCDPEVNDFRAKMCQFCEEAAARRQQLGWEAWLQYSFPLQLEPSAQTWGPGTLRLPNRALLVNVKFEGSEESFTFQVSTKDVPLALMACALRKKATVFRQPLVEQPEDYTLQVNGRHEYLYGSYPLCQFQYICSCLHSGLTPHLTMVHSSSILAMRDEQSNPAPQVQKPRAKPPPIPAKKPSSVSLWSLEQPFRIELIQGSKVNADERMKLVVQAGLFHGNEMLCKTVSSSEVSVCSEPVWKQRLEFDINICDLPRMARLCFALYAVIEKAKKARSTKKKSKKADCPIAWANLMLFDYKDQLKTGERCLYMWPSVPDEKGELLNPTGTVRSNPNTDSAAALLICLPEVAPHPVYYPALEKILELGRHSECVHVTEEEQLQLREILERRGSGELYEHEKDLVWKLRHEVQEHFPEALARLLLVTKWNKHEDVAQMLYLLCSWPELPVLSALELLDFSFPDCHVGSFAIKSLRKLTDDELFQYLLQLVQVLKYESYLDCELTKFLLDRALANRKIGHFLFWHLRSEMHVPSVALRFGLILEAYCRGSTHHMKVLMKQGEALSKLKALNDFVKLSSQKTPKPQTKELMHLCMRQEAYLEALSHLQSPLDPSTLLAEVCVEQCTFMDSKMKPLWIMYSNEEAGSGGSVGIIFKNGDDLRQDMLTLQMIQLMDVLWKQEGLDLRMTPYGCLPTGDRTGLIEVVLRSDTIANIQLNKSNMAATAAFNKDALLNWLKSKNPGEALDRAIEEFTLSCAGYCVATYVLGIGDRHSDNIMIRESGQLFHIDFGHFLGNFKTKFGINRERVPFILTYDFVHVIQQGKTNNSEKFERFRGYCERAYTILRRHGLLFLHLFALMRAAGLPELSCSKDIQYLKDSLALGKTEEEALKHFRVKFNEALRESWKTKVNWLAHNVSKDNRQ
Kind of test: Enzyme binding assay (KINOMEscan). Particulars: Eurofins DiscoveRx. The method, then:
(§1) Kinase enzyme binding affinities of compounds disclosed herein were determined using the KINOMEscan technology performed by Eurofins DiscoveRx Corporation, San Diego, California, USA (www.eurofinsdiscoveryservices.com). Table 2 reports the obtained PIK3β Kd values (nM) of, with the PIK3β Kd being the inhibitor binding constant. Table 3 reports the obtained Kd values (nM), with the Kd being the inhibitor binding constant: […]

A further test addresses T2, PIK3Ca_h (Homo sapiens, UniProt P42336).
T2 construct: purchased Eurofins DiscoveRx Corporation
Kind of test: Enzyme binding assay (KINOMEscan). To be noted: Eurofins DiscoveRx. The method, then:
as §1

The target in another test is T3, PIK3Cg_h (Homo sapiens, UniProt P48736).
T3 construct: purchased Eurofins DiscoveRx Corporation
T3 sequence (P48736 whole entry): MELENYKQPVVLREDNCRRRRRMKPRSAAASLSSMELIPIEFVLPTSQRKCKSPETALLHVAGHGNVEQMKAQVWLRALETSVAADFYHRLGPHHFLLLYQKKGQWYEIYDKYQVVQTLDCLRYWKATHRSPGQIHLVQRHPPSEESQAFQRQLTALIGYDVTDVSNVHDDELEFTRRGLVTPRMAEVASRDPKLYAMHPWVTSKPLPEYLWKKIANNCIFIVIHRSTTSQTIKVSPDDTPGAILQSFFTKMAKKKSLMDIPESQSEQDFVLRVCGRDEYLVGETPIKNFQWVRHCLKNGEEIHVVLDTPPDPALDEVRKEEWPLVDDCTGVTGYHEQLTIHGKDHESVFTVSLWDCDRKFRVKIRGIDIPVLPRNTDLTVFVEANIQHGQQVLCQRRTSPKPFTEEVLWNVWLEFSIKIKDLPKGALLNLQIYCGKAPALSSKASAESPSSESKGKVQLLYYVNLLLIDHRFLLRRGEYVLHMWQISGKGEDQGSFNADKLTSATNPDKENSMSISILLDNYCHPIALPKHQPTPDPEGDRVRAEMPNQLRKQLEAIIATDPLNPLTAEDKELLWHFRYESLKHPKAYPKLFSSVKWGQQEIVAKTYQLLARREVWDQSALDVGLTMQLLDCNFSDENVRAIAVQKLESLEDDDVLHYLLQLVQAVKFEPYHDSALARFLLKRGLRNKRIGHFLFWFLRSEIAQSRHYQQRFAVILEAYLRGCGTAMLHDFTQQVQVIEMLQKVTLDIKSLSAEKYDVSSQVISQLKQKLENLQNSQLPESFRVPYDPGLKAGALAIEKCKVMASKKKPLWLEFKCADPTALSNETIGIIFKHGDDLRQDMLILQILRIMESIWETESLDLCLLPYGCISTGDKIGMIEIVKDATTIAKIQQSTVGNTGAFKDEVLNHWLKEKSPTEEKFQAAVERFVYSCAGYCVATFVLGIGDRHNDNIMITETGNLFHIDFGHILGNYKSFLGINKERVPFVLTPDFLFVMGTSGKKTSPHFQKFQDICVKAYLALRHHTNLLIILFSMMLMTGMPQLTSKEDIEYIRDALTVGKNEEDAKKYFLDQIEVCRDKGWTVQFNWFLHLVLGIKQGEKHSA
Kind of test: Enzyme binding assay (KINOMEscan). To be noted: Eurofins DiscoveRx. Here is the method:
as §1

The next test concerns the target T4, PIK3Cb_h (Homo sapiens, UniProt P42338).
T4 construct: purchased Eurofins DiscoveRx Corporation
Nature of the test: Enzyme binding assay (KINOMEscan). To be noted: Eurofins DiscoveRx. Here is the method:
as §1

Test [1] has as its system phosphorylation of AKT in HCC70 cells. Kind of test: Cellular assay: phosphorylation of AKT in HCC70 cells (western blotting). Format: cell-based. Particulars: Homo sapiens, HCC70, 1 h, HCC70 cells, compound 500 nM, 60 min, inhibition of Akt activity from band intensities. An outline of the steps: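 HCC70 cells treated with compound at 500 nM (0.1% DMSO control) for 60 min at 37 °C; pAKT Ser473 and Thr308 plus total AKT measured by western blot with fluorescent detection. Inhibition from band intensities, binned as + (20–60%), ++ (60–80%), +++ (80–90%), ++++ (>90%).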

Setting [2] is: read-out: Index of AI (HCC70) p-AKT Thr 308.
[3] abbreviates: read-out: Index of AI (HCC70) p-AKT ser 473.

T2 sequence (P42336 whole entry): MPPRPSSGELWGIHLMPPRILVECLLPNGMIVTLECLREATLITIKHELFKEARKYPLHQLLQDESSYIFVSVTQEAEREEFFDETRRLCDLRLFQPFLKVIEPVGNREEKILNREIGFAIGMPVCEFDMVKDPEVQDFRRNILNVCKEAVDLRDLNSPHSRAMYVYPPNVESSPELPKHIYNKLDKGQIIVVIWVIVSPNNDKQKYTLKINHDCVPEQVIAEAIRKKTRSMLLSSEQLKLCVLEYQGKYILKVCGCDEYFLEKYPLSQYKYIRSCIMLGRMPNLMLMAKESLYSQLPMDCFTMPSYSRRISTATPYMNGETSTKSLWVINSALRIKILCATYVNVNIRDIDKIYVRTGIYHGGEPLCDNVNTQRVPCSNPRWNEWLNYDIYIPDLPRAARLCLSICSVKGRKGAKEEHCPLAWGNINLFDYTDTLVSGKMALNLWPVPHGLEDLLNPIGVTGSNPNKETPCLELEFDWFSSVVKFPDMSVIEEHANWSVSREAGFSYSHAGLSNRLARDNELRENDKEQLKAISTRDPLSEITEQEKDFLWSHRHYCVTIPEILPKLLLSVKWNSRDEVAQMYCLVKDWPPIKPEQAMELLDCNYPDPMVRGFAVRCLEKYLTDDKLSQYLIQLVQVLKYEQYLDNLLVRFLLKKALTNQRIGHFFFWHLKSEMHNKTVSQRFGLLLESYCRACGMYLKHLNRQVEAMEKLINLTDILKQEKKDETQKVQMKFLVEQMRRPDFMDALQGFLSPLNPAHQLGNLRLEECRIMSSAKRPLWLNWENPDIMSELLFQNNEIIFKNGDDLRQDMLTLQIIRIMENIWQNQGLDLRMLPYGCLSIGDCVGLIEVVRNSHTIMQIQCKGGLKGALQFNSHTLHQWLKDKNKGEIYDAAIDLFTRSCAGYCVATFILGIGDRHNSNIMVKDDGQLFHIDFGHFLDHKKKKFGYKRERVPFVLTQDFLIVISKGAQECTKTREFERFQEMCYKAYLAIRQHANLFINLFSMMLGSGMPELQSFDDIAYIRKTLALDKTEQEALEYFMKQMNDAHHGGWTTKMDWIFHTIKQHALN
T4 sequence (P42338 whole entry): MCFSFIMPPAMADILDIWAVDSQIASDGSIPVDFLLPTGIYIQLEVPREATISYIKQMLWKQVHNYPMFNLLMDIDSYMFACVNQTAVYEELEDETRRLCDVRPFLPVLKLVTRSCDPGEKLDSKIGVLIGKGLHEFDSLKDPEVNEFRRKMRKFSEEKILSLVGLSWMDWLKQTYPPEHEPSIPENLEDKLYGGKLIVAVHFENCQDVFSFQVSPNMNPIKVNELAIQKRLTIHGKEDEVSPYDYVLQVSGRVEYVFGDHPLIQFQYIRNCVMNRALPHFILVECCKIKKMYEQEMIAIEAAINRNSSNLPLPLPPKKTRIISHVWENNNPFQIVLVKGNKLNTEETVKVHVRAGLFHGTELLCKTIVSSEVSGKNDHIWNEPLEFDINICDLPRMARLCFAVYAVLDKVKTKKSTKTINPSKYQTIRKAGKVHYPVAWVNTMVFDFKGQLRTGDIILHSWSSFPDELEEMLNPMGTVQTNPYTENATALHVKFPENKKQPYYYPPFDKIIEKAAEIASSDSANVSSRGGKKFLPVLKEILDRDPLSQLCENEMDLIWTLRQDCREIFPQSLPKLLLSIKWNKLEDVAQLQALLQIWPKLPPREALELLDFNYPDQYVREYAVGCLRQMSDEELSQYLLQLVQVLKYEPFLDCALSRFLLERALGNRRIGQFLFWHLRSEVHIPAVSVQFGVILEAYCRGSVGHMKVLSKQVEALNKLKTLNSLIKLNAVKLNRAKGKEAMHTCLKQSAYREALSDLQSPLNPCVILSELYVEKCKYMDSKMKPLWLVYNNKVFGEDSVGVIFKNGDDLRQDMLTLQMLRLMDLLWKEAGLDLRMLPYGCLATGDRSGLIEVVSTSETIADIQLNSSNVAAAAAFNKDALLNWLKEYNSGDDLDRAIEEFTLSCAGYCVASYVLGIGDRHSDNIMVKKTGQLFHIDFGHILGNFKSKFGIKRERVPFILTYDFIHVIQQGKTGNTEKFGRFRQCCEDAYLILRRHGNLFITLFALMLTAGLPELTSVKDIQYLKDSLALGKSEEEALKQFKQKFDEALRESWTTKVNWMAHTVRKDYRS

Consider `C[C@@H](Nc1cc(F)cc(F)c1)c1cc(C(=O)N2CC[C@@H](N(C)C)C2)cn2c(=O)cc(N3CCOCC3)nc12` [Compound 48-P3, 9-((R)-1-((3,5-difluorophenyl)amino)ethyl)-7-((R)-3-(dimethylamino)pyrrolidine-1-carbonyl)-2-morpholino-4H-pyrido[1,2-a]pyrimidin-4-one], for which the Kd at PIK3Cd_h is 8.9 nM; on PIK3Ca_h it was 92 nM; on PIK3Cg_h it was 1100 nM.

Consider `CC(Nc1cc(F)cc(F)c1)c1cc(C(=O)N2CCC(N(C)C)C2)cn2c(=O)cc(N3CCOCC3)nc12` (stereo not shown) [Compound 48, 9-(1-((3,5-difluorophenyl)amino)ethyl)-7-(3-(dimethylamino)pyrrolidine-1-carbonyl)-2-morpholino-4H-pyrido[1,2-a]pyrimidin-4-one], for which the Kd was found to be 40 nM at PIK3Cd_h, 0.26 nM on PIK3Cb_h, 130 nM at PIK3Ca_h and 730 nM at PIK3Cg_h. Further, the inhibition at 0.5 µM in test [1] (setting [2]) and in test [1] (setting [3]) was 80 to 90% in each case.

Turning to `CC1Cc2c(F)cccc2N1Cc1cc(C(=O)N(C)C)cc2c(=O)cc(N3CCOCC3)oc12` (stereo not shown) [Compound 33, 8-((4-fluoro-2-methylindolin-1-yl)methyl)-N,N-dimethyl-2-morpholino-4-oxo-4H-chromene-6-carboxamide], the dissociation constant Kd at PIK3Cd_h amounted to 12 nM; on PIK3Cb_h, 0.49 nM; at PIK3Ca_h it was 17 nM; on PIK3Cg_h, 320 nM. For the same compound, the inhibition at 0.5 µM in test [1] (setting [2]) and in test [1] (setting [3]) was above 90% throughout.

For `CNS(=O)(=O)c1cc(C(C)Nc2cc(F)cc(F)c2)c2oc(N3CCOCC3)cc(=O)c2c1` (stereo not shown) [Compound 16, 8-(1-((3,5-difluorophenyl)amino)ethyl)-N-methyl-2-morpholino-4-oxo-4H-chromene-6-sulfonamide], the Kd on PIK3Cd_h was found to be 8.1 nM; at PIK3Cb_h, 0.19 nM; on PIK3Ca_h it was 36 nM; on PIK3Cg_h it was 110 nM. Further, the inhibition at 0.5 µM in test [1] (setting [2]) and in test [1] (setting [3]) was above 90% in each case.

Turning to `CN(C)C(=O)c1cc(CN2CCc3c(F)cc(F)cc32)c2oc(N3CCOCC3)cc(=O)c2c1` [Compound 32, 8-((4,6-difluoroindolin-1-yl)methyl)-N,N-dimethyl-2-morpholino-4-oxo-4H-chromene-6-carboxamide], the Kd amounted to 19 nM on PIK3Cd_h, 0.18 nM on PIK3Cb_h, 54 nM on PIK3Ca_h and 500 nM at PIK3Cg_h. In addition, the inhibition at 0.5 µM in test [1] (setting [2]) and in test [1] (setting [3]) was above 90% in each case.

With `C[C@@H]1CN(c2cc(=O)c3cc(C(=O)N(C)C)cc(CN4CCc5c(F)cc(F)cc54)c3o2)CCO1` [Compound 90, (R)-8-((4,6-difluoroindolin-1-yl)methyl)-N,N-dimethyl-2-(2-methylmorpholino)-4-oxo-4H-chromene-6-carboxamide], the Kd on PIK3Cd_h was determined as 1.5 nM; at PIK3Cb_h it was 0.075 nM; at PIK3Ca_h, 3.2 nM; on PIK3Cg_h it was 87 nM. In addition, the inhibition at 0.5 µM in test [1] (setting [2]) and in test [1] (setting [3]) was above 90% in each case.

On to `CC(Nc1cc(F)cc(F)c1)c1cc(N2CCOCC2=O)cc2c(=O)cc(N3CCOCC3)oc12` (stereo not shown) [Compound 10, 4-(8-(1-((3,5-difluorophenyl)amino)ethyl)-2-morpholino-4-oxo-4H-chromen-6-yl)morpholin-3-one], for which the Kd at PIK3Cd_h was 8 nM; at PIK3Cb_h, 0.2 nM; on PIK3Ca_h, 22 nM; on PIK3Cg_h it was 730 nM. The inhibition at 0.5 µM in test [1] (setting [2]) and in test [1] (setting [3]) was above 90% each time.

In the case of `C[C@@H](Nc1cc(F)cc(F)c1)c1cc(C(=O)N2CC[C@H](N(C)C)C2)cn2c(=O)cc(N3CCOCC3)nc12` [Compound 48-P4, 9-((R)-1-((3,5-difluorophenyl)amino)ethyl)-7-((S)-3-(dimethylamino)pyrrolidine-1-carbonyl)-2-morpholino-4H-pyrido[1,2-a]pyrimidin-4-one], the Kd at PIK3Cd_h turned out to be 18 nM; at PIK3Ca_h, 190 nM; on PIK3Cg_h, 1600 nM.

As to `C[C@@H]1CN(c2cc(=O)c3cc(C(=O)N(C)C)cc(CN4CCc5c(F)cccc54)c3o2)CCO1` [Compound 91, (R)-8-((4-fluoroindolin-1-yl)methyl)-N,N-dimethyl-2-(2-methylmorpholino)-4-oxo-4H-chromene-6-carboxamide], the Kd was 7.4 nM at PIK3Cd_h, 1 nM on PIK3Cb_h, 22 nM at PIK3Ca_h and 230 nM at PIK3Cg_h. For the same compound, the inhibition at 0.5 µM in test [1] (setting [2]) and in test [1] (setting [3]) was above 90% throughout.

As to `CC(Nc1cc(F)cc(F)c1)c1cc(C(=O)N2CCC(N(C)C)C2)cn2c(=O)cc(N3CCOCC3)nc12` (single isomer, unassigned) [Compound 48-P1], the Kd on PIK3Cd_h was above 10000 nM; on PIK3Cb_h it was 400 nM; at PIK3Ca_h, above 10000 nM; at PIK3Cg_h, above 10000 nM.

As for `CC(Nc1cc(F)cc(F)c1)c1cc(NC2=NC(C)(C)CO2)cc2c(=O)cc(N3CCOCC3)oc12` (stereo not shown) [Compound 21, 8-(1-((3,5-difluorophenyl)amino)ethyl)-6-((4,4-dimethyl-4,5-dihydrooxazol-2-yl)amino)-2-morpholino-4H-chromen-4-one], the Kd at PIK3Cd_h came to 58 nM; on PIK3Cb_h, 0.31 nM; at PIK3Ca_h, 45 nM; on PIK3Cg_h, 2200 nM. The inhibition at 0.5 µM in test [1] (setting [2]) and in test [1] (setting [3]) was 80 to 90% each time.

The values are drawn from patent publication US20240166617A1, “PHOSPHOINOSITIDE 3 KINASE BETA INHIBITORS AND COMPOSITIONS AND METHODS THEREOF” (Geode Therapeutics Inc., priority 2021, published 2024).
